These results are taken from patent publication US20240166690A1, “MULTI-TARGET CY[…] FOR OPIOID/NEUROPEPTIDE FF RECEPTORS, AND PREPARATION THEREFOR AND APPLICATION THEREOF” (SHANGHAI TIANCI LIFE SCIENCE DEVELOPMENT CO., LTD., priority 2021, published 2024).

Molecules are shown by their SMILES. Bridge positions count the residues as written; N and C are the ends. Square brackets hold non-standard residues; d marks the D form. Peptide text beside a SMILES is read from it. NMeF = CN[C@@H](Cc1ccccc1)C(=O)O; dOrn = NCCC[C@@H](N)C(=O)O

The subject of one data set is male mice. The experiment in a line: Conditioned place preference experiment (CPP). The format is in vivo. The following applies: 10000 μg/kg orally. On the procedure: Conditioned place preference experiment (CPP) was conducted in a device consisting of three organic glass boxes, wherein two large boxes (20×20×20 cm) on either side separated by a small box (5×20×20 cm) in the middle. A small door of 5×5 was at the bottom of two large boxes for mice to enter and exit, and the doors can be closed. A box on one side was white, with a rough wire mesh as the bottom and a light intensity of 50 lux. A box on other side was black, with a smooth bottom and a light intensity of 20 lux. 25±5 g male mice were selected for the experiment, the room temperature was 22±1° C. On the first day of the experiment, the mice were first screened, allowing them to shuttle freely between two boxes for 15 minutes. The time the mice stayed in one box was recorded, and mice that stayed for more than 9 minutes were removed. Mice without preference/aversion were selected. […] On the 5th day, CPP performance was measured. As on the first day, the time stay in each box was measured for the mice after administration with the duration of 15 minutes. The inter group differences between different drug treatments in the CPP experiment and the differences in the number of jumps in the naloxone withdrawal experiment was statistically analyzed using paired t-tests. *P<0.05, **P<0.01, and ***P<0.001 indicated significance of differences between the drug treatment group and the saline group.

In data set [1] the test system is Kunming male mice. Kind of data set: Open field test (locomotor activity). The data set is classed as in vivo. The settings on record: oral, 1000 μg/kg of compound 1, 100 μg/kg of compound 11; for locomotor distance: within 150 minutes, saline 131.1±33.93 m. As for the experimental part: Open field test was consisted of an uncapped 50×50×40 cm black organic glass box and a set of motion monitoring system. 21±2 g Kunming male mice were selected for the experiment. The room temperature was controlled between 22±1° C., otherwise, high or low temperatures would affect the movement of the mice. Before the experiment began, the box was wipped with alcohol to remove the odor inside and avoid the odor from affecting the locomotor activity of the next mouse. Before the experiment, the basic locomotor activity of the mouse in 30 minutes was recorded, followed by oral (p.o.) injection of physiological saline, 1000 μg/kg of compound 1, and 100 μg/kg of compound 11. The locomotor activity of mice within 150 minutes was recorded. The locomotor activity of mouse was represented by the total distance traveled, which is the total distance±S.E.M. The difference between the compound group and saline control group was statistically analyzed using one-way ANOVA (Bonferroni test). *P<0.05, **P<0.01, and ***P<0.001 indicated significance of difference between saline and compound.

Data set [2] deals with Kunming male mice. The experiment in a line: Analgesic tolerance assay, oral injection for 8 consecutive days. The data set is classed as in vivo. The settings on record: 8 consecutive days of oral injection, tail flick latency. On the procedure:
The analgesic tolerance experiment was conducted by orally injecting compounds 1 and 11 for 8 consecutive days, and then identifying the changes in the analgesic tail flick threshold from the first day to the eighth day through a photothermal tail flick experiment, thus evaluating the pharmacological activity of compounds 1 and 11 in the present invention in terms of analgesic tolerance.
21±2 g Kunming male mice were selected for the experiment, and the mice were eat freely. Generally, the basic pain threshold of mice was measured on the first day, followed by oral injection of compounds 1 and 11 for 8 consecutive days. The pain threshold at different time points was measured on the first day, and only the pain threshold at the highest analgesic point was measured on the following 7 days.
The experimental data was represented by tail flick time. The analgesic tolerance of drugs was compared using the tail flick latency at the maximum analgesic effect time point of different compounds. The tail flick latency data was represented by mean±S.E.M. The differences of analgesic effects of […] administration for eight days in mice were analyzed using one-way ANOVA (Tukey HSD test). *P<0.05, **P<0.01, and ***P<0.001 indicated a significant difference in analgesic effects compared to the injection of the drug on the first day.
For orientation: Thermal pain tests record how soon the animal reacts.

In the next data set the target is T1, Mu-opioid receptor (Homo sapiens, UniProt P35372).
T1 construct: expressed in transfected cells; host or cells: HEK293
Kind of data set: cAMP functional experiment, Mu-opioid receptor (forskolin-induced cAMP accumulation). The format is cell-based. On the procedure:
The agonistic activity of the cyclopeptide molecule of the present invention against Mu-opioid receptor, Delta-opioid receptor, Kappa-opioid receptor, NPFF1 receptor and NPFF2 receptor was evaluated by detecting the regulation of the cyclopeptide molecule of the present invention on the intracellular accumulation of cyclic adenosine monophosphate (cAMP) induced by Forskolin in HEK293 cells stably expressing these five receptors. The experimental method was: the cells were seeded in 24 well plates with 120000 cells per well, and were cultured for more than 20 hours. At the beginning of the experiment, the culture medium in the culture dish was suck out, and then 500 μL of preheated serum-free medium containing 1 mM of IBMX was added, the mixture was incubated at 37° C. for 10 minutes. Then each 10 μL of the drug to be tested and 10 μM of forskolin (final concentration) were added to each well. The mixture was incubated at 37° C. for 30 minutes. After incubation, all the liquid was suck out from the culture dish, 500 μL of 0.2 N hydrochloric acid was added to each well, the mixture was incubated at room temperature for 30 minutes to promote cell lysis. After lysis was complete, NaOH was added to neutralize the hydrochloric acid solution used for lysis. Then all the liquid was suck out from the culture dish into centrifuge tubes, the liquid was centrifuged at 12000 rpm for 2 minutes. 50 μL was taken to a clean centrifuge tube, 100 μL of 60 μg/μL PKA was added, and 100 μL of TE cAMP buffer was added to the blank control group (B). Another 50 μL of 0.5 μ Ci[^3H]cAMP was added to each of the above centrifuge tubes, the mixture was quickly mixed and incubated at 4° C. for more than 2 hours. After incubation, another 100 μL of activated carbon suspension was added to each tube, the mixture was vortex agitated evenly, placed in an ice bath for 1 minute, centrifuged at 5000 rpm for 4 minutes. 200 μL of supernatant after centrifugation in each tube was suck out to a 24 well plate, with an additional 700 μL of scintillator liquid added per well, then the 24 well plate was sealed with adhesive film, placed for 3 hours, then placed on the scintillation instrument for measurement.
The inhibitory effect of cAMP was represented by the percentage (% control) of drug inhibition of intracellular cAMP accumulation induced by Forskolin, wherein % control=(cAMP content when treated with Forskolin−cAMP content when Forskolin co-treated with the test drug)/(cAMP content when treated with Forskolin−cAMP content when treated with solvent). The related % control data was represented by mean±S.E.M. The dose-effect relationship of the drug was statistically analyzed using a nonlinear regression model, and the IC50 values of the multi-target cyclopeptide molecule on inhibition of Forskolin induced intracellular cAMP accumulation were calculated using the statistical software GraphPad Prism version 5.0.
(Changes in cAMP serve as a functional read-out for many G protein-coupled receptors.)

T1 sequence (P35372 whole entry): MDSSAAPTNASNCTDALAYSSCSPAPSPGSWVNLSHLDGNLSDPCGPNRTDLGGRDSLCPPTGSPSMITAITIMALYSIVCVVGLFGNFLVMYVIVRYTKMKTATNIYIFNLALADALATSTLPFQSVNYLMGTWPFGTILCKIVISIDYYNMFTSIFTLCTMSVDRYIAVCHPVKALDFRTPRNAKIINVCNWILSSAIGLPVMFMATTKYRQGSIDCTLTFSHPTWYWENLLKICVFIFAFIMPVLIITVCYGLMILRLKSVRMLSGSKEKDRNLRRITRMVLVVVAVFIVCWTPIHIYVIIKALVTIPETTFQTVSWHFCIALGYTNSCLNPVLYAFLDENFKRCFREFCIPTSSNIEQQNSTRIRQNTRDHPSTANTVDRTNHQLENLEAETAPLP

As for `CN1C(=O)CNC(=O)[C@H](NC(=O)[C@@H](N)Cc2ccc(O)cc2)CCCCNC(=O)C[C@@H](C(=O)N2CCC[C@H]2C(=O)N[C@@H](CCC(N)=O)C(=O)N[C@@H](CCCNC(=N)N)C(=O)N[C@@H](Cc2ccccc2)C(N)=O)NC(=O)[C@@H]1Cc1ccccc1` [Compound 1, Tyr-c[D-Lys-Gly-NMe-Phe-Asp]-Pro-Gln-Arg-Phe-NH2] (H-Y[dK]G[NMeF]DPQRF-NH2; lactam 2-5), in the data set with male mice, the “conditioned place preference” value was “no phenomenon of conditioned place preference”. In addition, in the data set with Kunming male mice [1], the “locomotor activity versus saline” value is listed as “no change in the locomotor activity” and the locomotor distance is listed as 109.4±32.16 m. Also, in the data set on Kunming male mice [2], the analgesic tolerance result was “no analgesic tolerance observed”. Besides, on Mu-opioid receptor, the midpoint of inhibition, the IC50, lay at 93.5 nM.
As for `CN1C(=O)CNC(=O)[C@H](NC(=O)[C@@H](N)Cc2ccc(O)cc2)CCCNC(=O)CC[C@@H](C(=O)N2CCC[C@H]2C(=O)N[C@@H](CCC(N)=O)C(=O)N[C@@H](CCCNC(=N)N)C(=O)N[C@@H](Cc2ccccc2)C(N)=O)NC(=O)[C@@H]1Cc1ccccc1` [Compound 11, Tyr-c^[2,5][D-Orn-Gly-NMe-Phe-Glu]-Pro-Gln-Arg-Phe-NH2] (H-Y[dOrn]G[NMeF]EPQRF-NH2; lactam 2-5), the “conditioned place preference” value in the data set on male mice was “no phenomenon of conditioned place preference”. In addition, in the data set with Kunming male mice [1], the “locomotor activity versus saline” value is given as “no change in the locomotor activity” and the locomotor distance is 127.9±23.49 m. Besides, in the data set with Kunming male mice [2], the analgesic tolerance entry is recorded as “no analgesic tolerance observed”. The IC50 – broadly, the point on the concentration scale where inhibition reaches its midpoint – against Mu-opioid receptor is 84 nM.
